Results on 15 compounds are retold here after PubChem BioAssay (NCI).

Experiment in all cases: inhibition of tumour cell growth, NCI panel, 48 h
Assay [1] concerns HCC-2998 colon.
Assay [2] has as its system HCT-15 colon.
For assay [3], the system named is HT29 colon.
The subject of assay [4] is MOLT-4 leukemia.
Assay [5] deals with OVCAR-4 ovarian.
Assay [6] relates to SK-MEL-2 melanoma.
For assay [7], the system named is SK-MEL-28 melanoma.
Assay [8] relates to TK-10 renal.
In assay [9] the test system is HS 578T breast.
Assay [10] relates to MDA-MB-231 breast.

Values joined by “and” are separate entries in the source; they are usually repeats but may differ in a detail not shown here. Identical values can stand only once.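 Assay format: 96-well plates, 48-hour exposure. At the GI50, growth is halved. At the TGI there is no net growth.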 Bounds are passed on as bounds.

Take `CC1C(c2ccccc2)N(C)C(c2ccccc2)C(C)C1(O)c1ccccc1` (stereo not given): the TGI in assay [1], in [2], in assay [3], in assay [4], in assay [5] and in assay [6] was more than 100 µM throughout. The TGI in assay [7] and in assay [8] was more than 100 µM throughout.
`C/C(=N\N=C(N)N)C(CN1CCOCC1)C(c1ccccc1)c1c(O)c2ccccc2oc1=O` (stereo not given): the TGI in assay [1], in assay [2], in assay [3], in [4], in [5] and in assay [6] was more than 100 µM in each case. For the same compound, the TGI in [7] and in assay [8] was more than 100 µM throughout.
As to `COc1cc(/C=C2\[C@@H]3NC(Cc4c(OC)c(C)c(OC)c(OC)c43)C(=O)N2Cc2ccccc2)c(OC)c(C)c1OC`, the TGI in assay [1] was more than 100 µM; in [3], 68.1 µM; in assay [4], 94 µM; in assay [5], 89.8 µM; in assay [6] it was 36.3 µM; in assay [7], more than 100 µM. This compound showed a TGI in assay [8] of more than 100 µM.
For the compound `Nc1nc(N)c2c(ccc3c2ccn3Cc2cccc([N+](=O)[O-])c2)n1`, the GI50 in assay [1] was 49 nM; in assay [2] it was 12.6 nM; in assay [9], 1.61 µM; in assay [10], 1270 nM; in assay [4] it was 70.4 nM and 62.1 nM; in assay [5], 1.15 µM. For the same compound, the GI50 is 1.26 µM in [6]; 1040 nM and 1020 nM in assay [7]; 1.14 µM in [8]. Moreover, the TGI is 1.56 µM in [1]; 1.58 µM and 1.7 µM in assay [2]; 3.38 µM in assay [9]; 2.64 µM in assay [10]; 2.49 µM in assay [4]; 2.59 µM in assay [5]. The TGI in [6] is 2.62 µM; in assay [7], 2.36 µM and 2.2 µM; in assay [8], 2.67 µM.
`O=C(CC12C3C4C1C1C2C3C41CC(=O)NO)NO` (stereo not given): the TGI was more than 100 µM in assay [1]; more than 100 µM in assay [2]; 88.7 µM in [3]; more than 100 µM in [4]; more than 100 µM in [6]; more than 100 µM in assay [7]. The same compound came in with a TGI in assay [8] of more than 100 µM.
As to `OC1OCC(COc2cc(Cl)c(Cl)cc2Cl)OC1O` (stereo not given), the TGI in assay [1] is more than 100 µM; in assay [2], 44.6 µM; in assay [3] it was more than 100 µM; in assay [4], more than 100 µM; in [5], more than 100 µM; in assay [7], more than 100 µM. The TGI in assay [8] was more than 100 µM.
Consider `CC1(C)CC(=O)C(CC2C(=O)CCCC2=O)C(=O)C1`, for which the TGI in assay [1], in assay [2], in assay [3], in assay [4], in assay [5] and in assay [6] was more than 100 µM throughout. For the same compound, the TGI in assay [7] and in assay [8] was more than 100 µM throughout.
With `CSc1ccc(N2C(=O)C3c4[nH]c5ccccc5c4C4CCC(C(C)(C)C)CC4C3C2=O)cc1` (stereo not given), the TGI is 33.3 µM in [1]; more than 100 µM in assay [2]; more than 100 µM in assay [3]; 31.7 µM in assay [4]; 24.9 µM in assay [5]; 43.1 µM in [6]. Further, the values for the TGI in assay [7] and in assay [8] were 35.1 µM and 40.5 µM, respectively.
Turning to `CC1(c2ccc(F)cc2)C2C(=O)NC(=O)C1C(=O)NC2=O` (stereo not given), the TGI in assay [1], in assay [2], in [3], in assay [4], in assay [5] and in [6] was more than 100 µM in each case. Besides, the TGI in assay [7] and in assay [8] was more than 100 µM each time.
Regarding `O=C1c2ccccc2C(=O)N1CC#CCO`, the TGI in assay [2], in [3], in [4], in assay [5], in assay [6] and in assay [7] was more than 100 µM throughout. Moreover, in [8], the TGI was more than 100 µM.
Take `CCO/C=C\C12CCCC1NC(c1ccccc1)(c1ccccc1)O2` (stereo not given): the TGI in assay [3] was 57.8 µM; in [4], 46 µM; in [5], more than 100 µM; in assay [6], 45.7 µM; in [7], more than 100 µM; in [8], more than 100 µM.
As for `O=C(Nc1ccc(Br)cc1)C(=O)C(C(=O)c1ccc(Cl)c(Cl)c1)C1OC(=O)c2ccccc21` (stereo not given), the TGI was 29.2 µM in assay [1]; 53.7 µM in assay [2]; 45 µM in [3]; more than 100 µM in assay [4]; 50.5 µM in assay [5]; 29.2 µM in [7]. In addition, the TGI in assay [8] is 51.6 µM.
`C=CCC1(CN(C)C)CC/C(=C\c2ccc3c(c2)OCO3)C1=O` (stereo not given): the TGI was more than 100 µM in assay [1]; more than 100 µM in assay [2]; more than 100 µM in [3]; 72.8 µM in assay [4]; more than 100 µM in assay [5]; more than 100 µM in assay [6]. For the same compound, the TGI in assay [7] and in [8] was more than 100 µM in each case.
Turning to `O=C(Nc1ccc(Cl)c(Cl)c1)c1ccc(NC2=C(Cl)C(=O)N(Cc3ccccc3)C2=O)cc1`, the GI50 is 5.37 µM in assay [9]; 16.5 µM in assay [3]; 3060 nM in assay [10]; 2180 nM in assay [4]; 17.2 µM in [5]; 10.1 µM in assay [6]. Moreover, the GI50 in [7] was 21200 nM; in assay [8], 18.8 µM. The TGI was 27 µM in assay [9]; more than 100 µM in assay [3]; 9.41 µM in [10]; 5.02 µM in assay [4]; 42.1 µM in [5]; 22.1 µM in assay [6]. The TGI in assay [7] was 63.5 µM; in [8] it was 39.2 µM.
`CCCCCCCCCCCCCCNCC(OC)OC`: the TGI in assay [1] is 33.4 µM; in assay [2] it was 25.7 µM; in assay [3], 14.3 µM; in [5], 30.1 µM; in assay [6] it was 30.9 µM; in assay [7], 30.4 µM. This compound also came in with a TGI in assay [8] of 32.9 µM.
